This passage reports IC50 results from publication PMC3759991 (Clinical cancer research : an official journal of the …, 2012).

Where no end group is shown, it is not given here. A value given as a limit tells only on which side of the number the result lay.

The target in experiment [1] is HLA-A*0301 (Homo sapiens, UniProt P04439). The experiment is described as follows: competitive MHC allele binding assay, A*0301.
Experiment [2] has as its target HLA-A*1101 (Homo sapiens, UniProt P04439, A114D/D185E/E176A/F33Y/L180Q/S129P/T187R). The experiment is described as follows: competitive MHC allele binding assay, A*1101.
The target of experiment [3] is HLA-A*3001 (Homo sapiens, UniProt P04439, D140H/D185E/E176W/F33S/G80R/H175R/K168Q/R138E/R41S). Description: competitive MHC allele binding assay, A*3001.
Experiment [4] has as its target HLA-A*3101 (Homo sapiens, UniProt P04439, A270S/D185E/E176V/E277Q/F33T/G231S/G80R/H175R/I121M/I218V/I322F/K168Q/L300P/L318F/M331R/P217A/Q94H/R138Q/T323A/T345S/T97I/V358M). The experiment is described as follows: competitive MHC allele binding assay, A*3101.
Experiment [5] addresses HLA-A*3301 (Homo sapiens, UniProt P04439, A270S/D185E/E176V/E277Q/E87N/F33T/G231S/H175R/I121M/I218V/I322F/K168Q/K210R/L300P/L318F/M331R/P217A/Q86R/Q94H/R138Q/T323A/T345S/T97I/V358M/Y195H). Description: competitive MHC allele binding assay, A*3301.
In experiment [6] the target is HLA-A*6801 (Homo sapiens, UniProt P04439, A269V/D185E/E176V/E277Q/E87N/F33Y/G231S/I121M/I166T/I218V/L180W/L300P/L318F/N151K/P208A/P217A/Q86R/R169H/T345S). The experiment is described as follows: competitive MHC allele binding assay, A*6801.

The IC50 is the point on the concentration scale where inhibition reaches its midpoint. Low readings indicate greater potency in that assay, high ones weaker potency in that assay. KLGGGQYGK [E255K-A]: the IC50 in experiment [1] is 0.208 µM; in experiment [2], 1.07 µM; in experiment [3], 27.8 µM; in experiment [4] it was 31.8 µM; in experiment [5], over 70 µM; in experiment [6], 57.1 µM.
As to EVYEGVWKK [E225K-B WT], the IC50 is 1.07 µM in experiment [1]; 0.063 µM in experiment [2]; over 70 µM in experiment [3]; over 70 µM in experiment [4]; 0.06 µM in experiment [5]; 0.01 µM in experiment [6].
